Experimental data published in US20070026090A1, “Treatment and prevention of inflammatory disease and mitochondrial dysfunction with high dose selenium” (priority 2003, published 2007).
Where two headings read alike, the source gives them in different places.

Experiments:
cytochrome c mRNA = assay: Cytochrome c mRNA in colon tissue (RT-PCR); assay type: in vivo, rat; details: 24 h after TNBS; supplemented (FIG. 7A lane 4)
18S RNA and GAPDH = assay: Housekeeping transcripts 18S and GAPDH in colon tissue (RT-PCR); assay type: in vivo, rat; details: supplemented rats (FIG. 7A)
cytochrome c = assay: Cytochrome c protein in colon tissue (Western blot); assay type: in vivo, rat
Description: Western blotting—analysis of Cytochrome c: Colon tissue samples were boiled and kept in sample buffer (Sigma-Aldrich Corp., St Louis, Mo.) immediately following isolation. For electrophoretic separation and immunodetection, the samples were reboiled, and subjected to SDS-PAGE followed by Western blot analysis. Briefly, separated proteins were transferred electrophoretically from the gel to a nitrocellulose membrane (Amersham International plc, Buckinghamshire, England). The membrane was blocked in TBS (0.15 M NaCl/10 mM Tris/HCl [pH7.4]) containing 5% (v/v) skim milk (Blotto), then incubated overnight with the primary antibody at 4° C. (diluted 1/1000 in Blotto). Following six washes in TBST (TBS containing 0.05% v/v Tween 20), the membrane was incubated for 2 hours at room temperature with the secondary antibody (diluted 1/1000 in Blotto). Immunoreactive bands were detected with ECL western blotting detection reagents and developed on film (Shilo et al., 2003). Separated proteins were transferred electrophoretically from the gel to a nitrocellulose membrane (Amersham International plc, Buckinghamshire, England). […] Immunoreactive bands were visualized by detection with ECL Western blotting detection reagents (ECL, Amersham Biosciences, Uppsala, Sweden) followed by exposure of film and quantitation by densitometry (Shilo et al., 2003).

J774.2 macrophages [1] = assay: Intracellular ROS (H2O2) production, DCF fluorescence; assay type: cell-based, murine
Experimental: (§1) Cell culture: Murine J774.2 macrophages (kindly provided by Prof. Dov Zipori from the Weizmann Institute of Science) were grown in RPMI medium supplemented with 10% (w/v) fetal calf serum, penicillin (100 U/ml), streptomycin (100 μg/ml) and 1× glutamine at 37° C. in a humidified atmosphere consisting of 95% air and 5% CO2. Experiments were performed on cells at 60% confluence.
Intracellular Radical Oxygen Species (ROS) (H2O2): Intracellular ROS were detected using dihydrodichlorofluorescein (H2DCF-DA). Cells exposed to different treatments were washed three times with PBS. Cells were centrifuged (2000 RPM, 5 min), resuspended in PBS and incubated with 25 μM H2DCF-DA for 30 min at 37° C. To detect intracellular fluorescence, the fluorochrome-loaded cells were excited using a 488-nm argon-ion laser in a flow cytometer. The dichlorofluorescein (DCF) emission was recorded at 530 nm. Data were collected from at least 10,000 cells. Alternatively, DCF fluorescence was recorded using a microfluorometer plate reader (GENios, Tecan, Austria). Cells were washed twice with PBS, then 25 μM H2DCF-DA was added and cells incubated for 30 min at 37° C. Following an additional wash, cells were lysed with PBS-0.2% Triton-X 100. Total fluorescence was recorded and calibrated according to protein content.

[2] = system: glutathione peroxidase (GPx); assay: GPx activity in macrophage cell extract; assay type: cell-based, murine; details: 24 h; range 0.5-30 μM (FIG. 8B)
Experimental: as §1
GPx activity: GPx activity was determined by following the rate of NADPH oxidation at 340 nm in the presence of the substrates: 3 mM glutathione (GSH), 1.2 U glutathione reductase (GR) and 1.5% H2O2, using a microfluorometer plate reader (GENios, Tecan, Austria). The reaction contained 500 μl Tris reaction buffer (100 mM Tris Hcl, 300 mM Kcl, 5 mM EDTA, 1 mM NaN3, pH 7.0), substrates and 100 μl cell extract. Macrophages were treated with selenium for 24 h. Wells were washed twice with PBS, cells permeabilized, and scraped using 200 μl 0.2% Triton X-100. The reaction was recorded every minute for 25 minutes. Slopes were calculated and the results were adjusted according to the protein amount calculated with the Bradford reagent.

[3] = Cell viability (PI exclusion, flow cytometry); assay type: cell-based, murine; details: mouse, J774.2 macrophages, 10 μM, 24 hour exposure
Experimental: (§2) Experiments were performed on cells at 60% confluence.
(§3) Determination of cell viability: Cell-membrane integrity was detected by flow cytometer (FACSort, Becton Dickenson and Co., San Jose, Calif. USA) as a measurement of cell viability. For this assay, the nonpermeant DNA-intercalating dye propidium iodide (PI), which is excluded by viable cells, was used. Fluorescence settings were excitation at 488 nm and emission at 575 nm. Data were collected from at least 10,000 cells.

J774.2 macrophages [4] = assay: Cell viability (PI exclusion, flow cytometry); assay type: cell-based, murine; details: 10 μM, activated cells
Experimental: as §2, §3

J774.2 macrophages [5] = assay: Mitochondrial membrane potential (CMTMRos, flow cytometry); assay type: cell-based, murine; details: 10 μM; LPS + INFγ activated (FIG. 16B)
Experimental: as §1
Evaluation of mitochondrial membrane potential (MMP) in cells—MMP was detected by flow cytometry (FACSort, Becton Dickenson and Co., San Jose, Calif. USA) using the membrane potential-sensitive fluorescent probe MitoTracker Orange (CMTMRos) (Molecular Probes, Oregon, USA). The following fluorescence setting was used: excitation at 488 nm and emission at 575 nm (FL2 channel) (24,25). Macrophage cells (1 million cells/ml) were stained with 0.1 μM CMTMRos for 30 min at 37° C. Accumulation of the dye in the mitochondria was evaluated by flow cytometer analysis as described hereinabove. Data were collected from 10,000 cells.

[6] = in vivo; cited from earlier work
[7] = in vivo; cited from earlier work; remark: listed apart in the source

## [Se] [selenium]
Cytochrome c mRNA
  effect of TNBS-induced colitis on cytochrome c mRNA levels: completely prevented
18S RNA and GAPDH
  18S and GAPDH transcription: without effecting
Cytochrome c; 24 h after TNBS, supplemented (FIG. 7B lane 4 vs lane 3)
  inflammation-associated alterations of cytochrome c protein: completely prevented
Cytochrome c; FIG. 7B lane 1 vs lane 2
  characteristics of cytochrome c protein, healthy uninduced rats: no effect
J774.2 macrophages [1]; 0.5-30 μM, resting J774.2 (FIG. 8A)
  ROS (H2O2) production over the concentration range: reduced ROS production in a dose-dependent manner
J774.2 macrophages [1]; LPS 10 ng/ml + INFγ 50 units/ml 24 h, then 10 μM (FIG. 16A)
  ROS production in activated macrophages: reduces
J774.2 macrophages [1]; at 30 μM, resting J774.2 (FIG. 8A)
  decrease in peroxide production (DCF fluorescence): > 30%
[2]
  concentration of maximum stimulation of GPx activity: 0.5 µM
[3]; LPS + INFγ activated (FIG. 14A column c), read-out: decrease in viability, activated cells
  cytotoxicity at 24 h, 10 μM: ≤ 50%
[3]; not activated, read-out: decrease in viability, control cells
  cytotoxicity at 24 h, 10 μM: 60%
J774.2 macrophages [4]; from 75% without selenium (FIG. 14A)
  cell survival, simultaneous selenium exposure and activation: 35%
J774.2 macrophages [4]; from 75% without selenium (FIG. 14B)
  cell survival, selenium following activation by 24 hours: 55%
J774.2 macrophages [5]
  mitochondrial membrane potential (MMP), activated macrophages: downregulates
[6]
  carcinogenesis in male mice: unaffected
[7]
  average lifetime daily intake with biochemical and clinical symptoms: greater than 1000 microgram
